{"source": "patent US20130136803A1", "about": "“COMPOSITIONS FOR ALGAE TREATMENT IN RECIRCULATING AND STAGNANT WATER SYSTEMS” (ARCH CHEMICALS, INC., priority 2011, published 2013)", "system": "wild mustard algae strain", "assay": "Efficacy of zinc and chelating agents against mustard algae (biomass over time by absorbance at 450 nm and visual assessment)", "assay_type": "cell-based", "conditions": "FIGS. 1-4", "experimental": "A wild mustard algae strain isolated from a residential swimming pool was used in this study. This strain was re-suspended into sterile capped flasks of 250 ml capacity, containing 100 ml sterile Kratz/Meyers (KM) algae medium. Algae stock cultures were incubated at room temperature with a 16/8 hours on/off cycle white fluorescent lighting for approximately 2 weeks to obtain actively growing liquid cultures at the time of experiment.\nSterile KM medium was dispensed in 50 ml aliquots into sterile 125 ml capped Erlenmeyer flasks containing 40 glass beads of 6 mm diameter. Beads provided an increased surface area for algae to attach, since this alga develops as a loosely attached yellow growth on pool surfaces. Simultaneously, beads helped to homogenize samples by grinding at the time of sampling. An initial mustard algae culture of approximately 2×104 was set into each flask. […]\nAlgal cultures were challenged with 2 or 4 ppm zinc from zinc sulfate monohydrate combined with 2 or 10 ppm chelator. […] Biomass was measured over time by surrogate parameters: absorbance and visual assessment. Absorbance was measured at 450 nm using 1 inch cell in a spectrophotometer; visual assessment range was 0-3, where “0” equal to no growth and “3” equal to very heavy growth. The results of the optical readings were arithmetically averaged. […]"}
{"smiles": "O=P1([O-])OP(=O)([O-])OP(=O)([O-])OP(=O)([O-])OP(=O)([O-])OP(=O)([O-])O1.[Na+].[Na+].[Na+].[Na+].[Na+].[Na+]", "note": "[SHMP, sodium hexametaphosphate]", "values": [{"measurement": "effect of chelating agent on the algaestatic activity of zinc ions", "setting": "2 or 4 ppm zinc from zinc sulfate monohydrate combined with 2 or 10 ppm chelator, 3 weeks, compared with zinc alone", "value": "enhanced the performance of the algaestatic activity of zinc ions at all concentrations"}, {"measurement": "dependence of the enhancing effect on the ratio of zinc to SHMP", "setting": "zinc to SHMP ratios 2:1 to 1:5", "value": "effect became greater with increasing amount of SHMP to a ratio of 1:5"}]}
